{
  "source": "patent US20130084640A1",
  "about": "“ANIMAL CELL CULTURE MEDIA COMPRISING NON ANIMAL OR PLANT DERIVED NUTRIENTS” (LIFE TECHNOLOGIES CORPORATION, priority 1999, published 2013)",
  "tested_on": "VERO cells",
  "test": "VERO cell growth in basal medium with non-animal supplements (mean cell count over subcultures, RGE)",
  "format": "cell-based",
  "procedure": "No attachment factors or coating of the plastic surface are required for the culture of VERO cells. At 3 to 4 days the cells were removed using standard cell culture techniques. The surface of the culture was first washed with Dulbecco's Phosphate Buffered Saline (DPBS) and then 1.0 ml Trypsin-EDTA (Life Technologies, Inc., Rockville, Md.) was added. The digest was allowed to sit on the cell surface for 3 to 5 minutes or until the cells rounded up and began to detach from the surface of the flask. The cells were completely detached by vigorous agitation against the palm of the hand and then 1.5 ml of soybean trypsin inhibitor was added to quickly neutralize enzymatic activity. The cells were counted under the microscope using trypan blue straining solution and new cultures plated at 2.5×10^3 cells per 25 cm^2 flask. Incubation was at 37° C. in 5% CO^2 in air. The cultures were passaged for a total of 4 subcultures and the mean cells per subculture determined from the counts of the final 3 subcultures (P2+P3+P4[…]). Initial studies were designed to formulate a culture medium completely devoid of animal proteins that supports the culture of animal cells. To this end, enzymatic hydrolysates of a variety of non-animal sources were examined as supplements in the basal medium described in Example 1. Hydrolysates of wheat gluten (HYPEP 4301 I, designated below us “Wheat Hydrolysate 1”, and HYPEP 8382, designated below as “Wheat Hydrolysate 2”). soy (HY—SOY) and rice (HYPEP 5115), as well as an extract of baker's yeast (HY-YEST 444) were obtained from Quest International (Norwich, N.Y.) and were formulated into the basal medium of Example 1 at 200 mg/liter. […] To more closely examine their efficacy as supplements for the present media, rice hydrolysates were supplemented into basal media at differing concentrations. These media were then used to examine VERO cell growth as described above. Cell counts were compared to those obtained in basal medium that was unsupplemented (negative control) or to Earle's Modified Eagle's Medium (EMEM) supplemented with 5% fetal bovine serum (FBS; positive control). […] To examine additional sources of non-animal peptides and vitamins as supplements for the present media, extracts of yeast, soy and potato were obtained from Quest International (Norwich, N.Y.) and were supplemented into basal media at differing concentrations. Yeast extract (YE) was also examined as a co-supplement with rice hydrolysate. These media were then used to examine VERO cell growth as described above. Cell counts were compared to those obtained with EMEM supplemented with 5% FBS. […] RGE was calculated as described in Example 2. To more closely examine the use of yeast extract as a supplement in the present media, preparations of YE or an ultrafiltrate of YE (“YEU”) were supplemented into basal media in the presence or absence of 100 mg/liter of rice hydrolysate. These media were then used to examine VERO cell growth as described above. Cell counts were compared to those obtained in EMEM supplemented with 5% FBS (positive control). […] RGE was calculated as described in Example 2. […] These media were then used to examine VERO cell growth as described above. Cell counts were compared to those obtained in basal medium that was unsupplemented (negative control) or to EMEM supplemented with 5% FBS (positive control). […] RGE was calculated as described in Example 2. […] The results in this table represent the mean cells per 25 cm^2 flask in duplicate over 4 subcultures.",
  "data": [
    {"substance": "EGF: recombinant human EGF (epidermal growth factor)", "values": [
      {"measurement": "Mean Cell Count", "setting": "Table 6, 0.5 mg/L in basal medium", "value": "8.0 × 10^5"},
      {"measurement": "RGE", "setting": "Table 6, 0.5 mg/L, relative to 5% FBS control", "value": 34},
      {"measurement": "Mean Cell Count", "setting": "Table 6, 1 mg/L in basal medium", "value": "11.4 × 10^5"},
      {"measurement": "RGE", "setting": "Table 6, 1 mg/L, relative to 5% FBS control", "value": 49},
      {"measurement": "RGE", "setting": "Table 6, 5 mg/L, relative to 5% FBS control", "value": 51},
      {"measurement": "Mean Cell Count", "setting": "Table 6, 10 mg/L in basal medium", "value": "22.6 × 10^5"},
      {"measurement": "Mean Cell Count", "setting": "Table 7, 5 mg/L", "value": "20.2 × 10^5"},
      {"measurement": "RGE", "setting": "Table 7, 5 mg/L, relative to 5% FBS control", "value": 76},
      {"measurement": "Mean Cell Count", "setting": "Table 7, 6 mg/L", "value": "19.3 × 10^5"},
      {"measurement": "RGE", "setting": "Table 7, 6 mg/L, relative to 5% FBS control", "value": 73},
      {"measurement": "Mean Cell Count", "setting": "Table 7, 7 mg/L", "value": "19.6 × 10^5"},
      {"measurement": "RGE", "setting": "Table 7, 7 mg/L, relative to 5% FBS control", "value": 74},
      {"measurement": "Mean Cell Count", "setting": "Table 7, 8 mg/1.", "value": "21.0 × 10^5"},
      {"measurement": "RGE", "setting": "Table 7, 8 mg/1., relative to 5% FBS control", "value": 79},
      {"measurement": "Mean Cell Count", "setting": "Table 7, 9 mg/L", "value": "20.7 × 10^5"},
      {"measurement": "RGE", "setting": "Table 7, 9 mg/L, relative to 5% FBS control", "value": 78},
      {"measurement": "Mean Cell Count", "setting": "Table 7, 10 mg/L", "value": "19.5 × 10^5"},
      {"measurement": "RGE", "setting": "Table 7, 10 mg/L, relative to 5% FBS control", "value": 73},
      {"measurement": "RGE", "setting": "Table 8, 5 mg/L, as % of 0 mg/L control", "value": 137, "unit": "%"},
      {"measurement": "Mean Cell Count", "setting": "Table 8, 5 mg/L, mean cells per 25 cm^2 flask in duplicate over 4 subcultures", "value": "7.0 × 10^5"},
      {"measurement": "RGE", "setting": "Table 8, 6 mg/L, as % of 0 mg/L control", "value": 118, "unit": "%"},
      {"measurement": "Mean Cell Count", "setting": "Table 8, 6 mg/L, over 4 subcultures", "value": "6.0 × 10^5"},
      {"measurement": "RGE", "setting": "Table 8, 7 mg/L, as % of 0 mg/L control", "value": 139, "unit": "%"},
      {"measurement": "Mean Cell Count", "setting": "Table 8, 7 mg/L, over 4 subcultures", "value": "7.1 × 10^5"},
      {"measurement": "RGE", "setting": "Table 8, 8 mg/L, as % of 0 mg/L control", "value": 143, "unit": "%"},
      {"measurement": "Mean Cell Count", "setting": "Table 8, 8 mg/L, over 4 subcultures", "value": "7.3 × 10^5"},
      {"measurement": "RGE", "setting": "Table 8, 9 mg/L, as % of 0 mg/L control", "value": 145, "unit": "%"},
      {"measurement": "Mean Cell Count", "setting": "Table 8, 9 mg/L, over 4 subcultures", "value": "7.4 × 10^5"},
      {"measurement": "RGE", "setting": "Table 8, 10 mg/L, as % of 0 mg/L control", "value": 133, "unit": "%"},
      {"measurement": "Mean Cell Count", "setting": "Table 8, 10 mg/L, over 4 subcultures", "value": "6.8 × 10^5"}
    ]}
  ]
}
